Assay [1] deals with Phosphorylation of ERK1/2 in AsPC-1 cells. In words: Phospho-ERK1/2 MSD Assay. The conditions noted are these: Homo sapiens, ASPC1, 2 h, read-out: 2 h p-ERK (AsPC-1 cells), IC50 (μM), AsPC-1 cells, 2 h compound treatment. In kind it is cell-based. The procedure: AsPC-1 (ATCC® CRL-1682TM) cells were cultured in RPMI 1640 Medium (ThermoFisher Scientific 11875093) containing 10% fetal bovine serum (ThermoFisher Scientific 16000044) and 1× penicillin-streptomycin-glutamine (ThermoFisher Scientific 10378016). Sixteen hours prior to compound treatment, AsPC-1 cells were seeded in 96-well cell culture plates at a density of 25,000 cells/well and incubated at 37° C., 5% CO2. A compound dose-response titration was diluted in growth media, added to appropriate wells of a cell culture plate, and then incubated at 37° C., 5% CO2 for 2 hours. Following compound treatment, cells were washed with ice-cold Dulbecco's phosphate-buffered saline, no Ca^2+ or Mg^2+ (ThermoFisher Scientific 14190144), and then lysed in RIPA buffer (50 mM Tris-HCl pH 7.5, 1% Igepal, 0.5% sodium deoxycholate, 150 mM NaCl, and 0.5% sodium dodecyl sulfate) containing protease inhibitors (Roche 4693132001) and phosphatase inhibitors (Roche 4906837001). Phosphorylation of ERK1/2 in compound-treated lysates was assayed using Phospho-ERK1/2 Whole Cell Lysate kits (Meso Scale Discovery K151DWD) according to the manufacturer's protocol. Assay plates were read on a Meso Scale Discovery Sector Imager 6000, and data were analyzed using a 4-parameter logistic model to calculate IC50 values.

Assay [2] concerns the target GDP-bound KRAS protein (aa 1-169), G12D and C118A; SOS-mediated nucleotide exchange (Homo sapiens (Human), UniProt P01116, C118A/G12D). In words: KRAS G12D Coupled Nucleotide Exchange Assay. In kind it is biochemical. The conditions noted are these: 2 h compound pre-incubation, GTP, cRAF AlphaScreen. The procedure: Purified GDP-bound KRAS protein (aa 1-169), containing both G12D and C118A amino acid substitutions and an N-terminal His-tag, was pre-incubated in assay buffer (25 mM HEPES pH 7.4, 10 mM MgCl2, and 0.01% Triton X-100) with a compound dose-response titration for 2 h. Following compound pre-incubation, purified SOS protein (aa 564-1049) and GTP (Roche 10106399001) were added to the assay wells and incubated for an additional 30 min. […] The assay plates were then read on a PerkinElmer En Vision Multilabel Reader, using AlphaScreen® technology, and data were analyzed using a 4-parameter logistic model to calculate IC50 values.

Assay [3] has as its target His-tagged KRAS G12D protein (Homo sapiens (Human), UniProt P01116, G12D). In words: KRAS G12D TR-FRET Assay. It is filed as binding. The conditions noted are these: biotinylated KRPep-2d, 10 μM GDP. The procedure:
Compounds of interest were prepared in a dose-response titration in DMSO, and 80 nL were added via Labcyte Echo to each well of a 384-well plate (Perkin Elmer 6008280). The His-tagged KRAS G12D protein (Amgen) was diluted to 20 nM in Assay Buffer (20 mM HEPES, pH 7.4, 10 mM MgCl2, 50 mM NaCl, 0.1% BSA, 0.01% Tween-20, 10 μM GDP) and 2 μL was added to the appropriate wells of the 384-well plate. The plate was incubated for 30 minutes at rt. Biotinylated KRPep-2d substrate (Amgen) was diluted to […] in Assay Buffer and 2 AL was added to all wells and incubated for 1 hour at room temperature. Detection Reagent (0.4 nM LANCE Eu-W1024 Anti-6×His (Perkin Elmer AD0401), 5 nM streptavidin-d2 (Cisbio 610SADLA)) was prepared in Assay Buffer, then 4 AL was added to the plate and incubated for 1 h at rt. Plates were read using PerkinElmer En Vision (ex: 320 nm, em1: 665 nm, em2: 615 nm) and em1/em2 data was used to generate curve fits using a 4-parameter logistic model to calculate IC50 values.

SMILES strings stand for the structures.

Sequence of His-tagged KRAS G12D protein (P01116-2 other isoform, or with tags, fused parts or gaps G12D): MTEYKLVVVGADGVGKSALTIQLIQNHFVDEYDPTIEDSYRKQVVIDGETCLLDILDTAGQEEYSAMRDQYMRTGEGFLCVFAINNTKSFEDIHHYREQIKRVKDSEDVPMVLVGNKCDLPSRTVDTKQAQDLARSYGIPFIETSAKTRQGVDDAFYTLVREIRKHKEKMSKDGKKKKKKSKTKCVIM
Sequence of GDP-bound KRAS protein (aa 1-169), G12D and C118A; SOS-mediated nucleotide exchange (P01116 other isoform, or with tags, fused parts or gaps G12D/C118A): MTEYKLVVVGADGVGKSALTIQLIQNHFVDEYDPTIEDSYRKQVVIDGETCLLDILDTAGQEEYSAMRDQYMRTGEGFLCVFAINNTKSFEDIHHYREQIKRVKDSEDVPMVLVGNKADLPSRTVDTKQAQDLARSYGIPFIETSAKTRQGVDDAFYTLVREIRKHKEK

Consider `N#Cc1c(N)sc2c(F)ccc(-c3c(Cl)cc4c(N5CCCCCC5)nc(OC[C@@]56CCCN5C[C@H](F)C6)nc4c3F)c12` [Example 1, 2-Amino-4-(4-(azepan-1-yl)-6-chloro-8-fluoro-2-(((2R,7aS)-2-fluorotetrahydro-1H-pyrrolizin-7a(5H)-yl)methoxy)quinazolin-7-yl)-7-fluorobenzo[b]thiophene-3-carbonitrile], for which the IC50 in assay [1] is 0.052 µM.

For the molecule `N#Cc1c(N)sc2c(F)ccc(-c3c(Cl)cc4c(N5CCCC[C@H](C#N)C5)nc(OC[C@@]56CCCN5C[C@H](F)C6)nc4c3F)c12` [Example 69, (3S)-1-(7-(2-amino-3-cyano-7-fluorobenzo[b]thiophen-4-yl)-6-chloro-8-fluoro-2-(((2R,7aS)-2-fluorotetrahydro-1H-pyrrolizin-7a(5H)-yl)methoxy)quinazolin-4-yl)azepane-3-carbonitrile], the IC50 came out at 71 nM in assay [2] and 139 nM in assay [3]. On the same counts, the results for `C[C@@]1(O)CCCN(c2nc(OC[C@@]34CCCN3C[C@H](F)C4)nc3c(F)c(-c4ccc(F)c5sc(N)c(C#N)c45)ncc23)C1` [Example 56, 2-Amino-7-fluoro-4-(8-fluoro-2-(((2R,7aS)-2-fluorotetrahydro-1H-pyrrolizin-7a(5H)-yl)methoxy)-4-((R)-3-hydroxy-3-methylpiperidin-1-yl)pyrido[4,3-d]pyrimidin-7-yl)benzo[b] thiophene-3-carbonitrile] are 30 nM and 17 nM. Turning to `N#Cc1c(N)sc2c(F)ccc(-c3c(Cl)cc4c(N5CCC=CC(O)C5)nc(OC[C@@]56CCCN5C[C@H](F)C6)nc4c3F)c12` (stereo partly drawn) [Example 29, 2-Amino-4-(6-chloro-8-fluoro-2-(((2R,7aS)-2-fluorotetrahydro-1H-pyrrolizin-7a(5H)-yl)methoxy)-4-(3-hydroxy-2,3,6,7-tetrahydro-1H-azepin-1-yl)quinazolin-7-yl)-7-fluorobenzo[b] thiophene-3-carbonitrile], the IC50 in assay [1] stood at 0.081 µM. Regarding `N#Cc1c(N)sc2c(F)ccc(-c3c(Cl)cc4c(N5CCCC6(CCS6(=O)=O)C5)nc(OC[C@@]56CCCN5C[C@H](F)C6)nc4c3F)c12` (stereo partly drawn) [Example 10, 2-Amino-4-(6-chloro-4-(1,1-dioxido-1-thia-6-azaspiro[3.5]nonan-6-yl)-8-fluoro-2-(((2R,7aS)-2-fluorotetrahydro-1H-pyrrolizin-7a(5H)-yl)methoxy)quinazolin-7-yl)-7-fluorobenzo[b] thiophone-3-carbonitrile], the values for the IC50 in assay [2] and in assay [3] were 36 nM and 44 nM, respectively. On the same counts, the results for `N#Cc1c(N)sc2c(F)ccc(-c3c(Cl)cc4c(N5CCCC[C@@H](C#N)C5)nc(OC[C@@]56CCCN5C[C@H](F)C6)nc4c3F)c12` [Example 68, (3R)-1-(7-(2-amino-3-cyano-7-fluorobenzo[b]thiophen-4-yl)-6-chloro-8-fluoro-2-(((2R,7aS)-2-fluorotetrahydro-1H-pyrrolizin-7a(5H)-yl)methoxy)quinazolin-4-yl)azepane-3-carbonitrile] are 91 nM and 144 nM. On the same counts, the results for `N#Cc1c(N)sc2c(F)ccc(-c3c(Cl)cc4c(N5CCC6(CCCS6(=O)=O)C5)nc(OC[C@@]56CCCN5C[C@H](F)C6)nc4c3F)c12` (stereo partly drawn) [Example 9, 2-Amino-4-(6-chloro-4-(1,1-dioxido-1-thia-7-azaspiro[4.4]nonan-7-yl)-8-fluoro-2-(((2R,7aS)-2-fluorotetrahydro-1H-pyrrolizin-7a(5H)-yl)methoxy)quinazolin-7-yl)-7-fluorobenzo[b] thiophene-3-carbonitrile] are 41 nM and 60 nM. For the molecule `N#Cc1c(N)sc2c(F)ccc(-c3c(Cl)cc4c(N5CCCCC(=O)C5)nc(OC[C@@]56CCCN5C[C@H](F)C6)nc4c3F)c12` [Example 8, 2-Amino-4-(6-chloro-8-fluoro-2-(((2R,7aS)-2-fluorotetrahydro-1H-pyrrolizin-7a(5H)-yl)methoxy)-4-(3-oxoazepan-1-yl)quinazolin-7-yl)-7-fluorobenzo[b] thiophene-3-carbonitrile], in assay [1], the IC50 is 0.015 µM. With `CC1(O)COCCN(c2nc(OC[C@@]34CCCN3C[C@H](F)C4)nc3c(F)c(-c4ccc(F)c5sc(N)c(C#N)c45)c(Cl)cc23)C1` (single isomer, unassigned) [Example 23], the IC50 in assay [2] is 42 nM; in assay [3] it was 44 nM. In the case of `N#Cc1c(N)sc2c(F)ccc(-c3c(Cl)cc4c(N5CCOCC(=O)C5)nc(OC[C@@]56CCCN5C[C@H](F)C6)nc4c3F)c12` [Example 6, 2-Amino-4-(6-chloro-8-fluoro-2-(((2R,7aS)-2-fluorotetrahydro-1H-pyrrolizin-7a(5H)-yl)methoxy)-4-(6-oxo-1,4-oxazepan-4-yl)quinazolin-7-yl)-7-fluorobenzo[b] thiophene-3-carbonitrile], the IC50 in assay [1] was 0.143 µM. In the case of `N#Cc1c(N)sc2c(F)ccc(-c3c(Cl)cc4c(N5CCCOCCC5)nc(OC[C@@]56CCCN5C[C@H](F)C6)nc4c3F)c12` (single isomer, unassigned) [Example 19], the half-maximal inhibitory concentration (IC50) in assay [2] was found to be 94 nM; in assay [3], 164 nM. For `N#Cc1c(N)sc2c(F)ccc(-c3c(Cl)cc4c(N5CCCC(C#N)CC5)nc(OC[C@@]56CCCN5C[C@H](F)C6)nc4c3F)c12` (stereo partly drawn) [Example 3, 1-(7-(2-Amino-3-cyano-7-fluorobenzo[b]thiophen-4-yl)-6-chloro-8-fluoro-2-(((2R,7a.S)-2-fluorotetrahydro-1H-pyrrolizin-7a(5H)-yl)methoxy)quina-zolin-4-yl)azepane-4-carbonitrile], the concentration for half-maximal inhibition (IC50) in assay [1] is 0.105 µM. `CC(C)(O)COc1nc(N2CCOC[C@@](C)(O)C2)c2cc(Cl)c(-c3ccc(F)c4sc(N)c(C#N)c34)c(F)c2n1` (single isomer, unassigned) [Example 67]: the half-maximal inhibitory concentration (IC50) is 34 nM in assay [2] and 61 nM in assay [3].

`N#Cc1c(N)sc2c(F)ccc(-c3c(Cl)cc4c(N5CCCC[C@@H](O)C5)nc(OC[C@@]56CCCN5C[C@H](F)C6)nc4c3F)c12` [Example 4, 2-Amino-4-(6-chloro-8-fluoro-2-(((2R,7aS)-2-fluorotetrahydro-1H-pyrrolizin-7a(5H)-yl)methoxy)-4-((R)-3-hydroxyazepan-1-yl)quinazolin-7-yl)-7-fluorobenzo[b] thiophene-3-carbonitrile]: the half-maximal inhibitory concentration (IC50) in assay [1] turned out to be 0.041 µM. For the molecule `N#Cc1c(N)sc2c(F)ccc(-c3c(Cl)cc4c(N5CCCC6(CNC(=O)O6)C5)nc(OC[C@@]56CCCN5C[C@H](F)C6)nc4c3F)c12` (stereo partly drawn) [Example 17, 2-Amino-4-(6-chloro-8-fluoro-2-(((2R,7aS)-2-fluorotetrahydro-1H-pyrrolizin-7a(5H)-yl)methoxy)-4-(2-oxo-1-oxa-3,7-diazaspiro[4.5]decan-7-yl)quinazolin-7-yl)-7-fluorobenzo[b] thiophene-3-carbonitrile], the IC50 in assay [1] stood at 0.768 µM.

Turning to `N#Cc1c(N)sc2c(F)ccc(-c3c(Cl)cc4c(N5CCCC6(CCOC6)C5)nc(OC[C@@]56CCCN5C[C@H](F)C6)nc4c3F)c12` (stereo partly drawn) [Example 2, 2-Amino-4-(6-chloro-8-fluoro-2-(((2R,7aS)-2-fluorotetrahydro-1H-pyrolizin-7a(5H)-yl)methoxy)-4-(2-oxa-7-azaspiro[4.5]decan-7-yl)quinazolin-7-yl)-7-fluorobenzo[b] thiophene-3-carbonitrile], the IC50 in assay [2] is 46 nM; in assay [3] it was 34 nM.

The values are drawn from US20250163064A1, “QUINAZOLINE COMPOUNDS AND USES THEREOF AS INHIBITORS OF MUTANT KRAS PROTEINS” (AMGEN INC., priority 2022, published 2025).
